# Patent publication US9096565B2, “Inhibitors of histone deacetylase” (MethylGene Inc., priority 2007, dated 2015)
# Molecular target: one or more of HDAC-4, HDAC-5, HDAC-6, HDAC-7, HDAC-8, HDAC-9, HDAC-10 and HDAC-11
# Assay: Inhibition of histone deacetylase enzymatic activity (summary statement over isoforms)
# Format: biochemical
# Conditions: Table 3, selected examples; HDAC isoform not given
# Procedure: The following protocol is used to assay the compounds of the invention.
# The mixture is pre-incubated for 5 minutes at room temperature. The reaction is started by bringing the temperature to 37° C. and adding 15 μL substrate. Total reaction volume is 50 μL.
# A 30 mM stock of Boc-Lys(trifluoroacetyl)-AMC substrate is prepared in DMSO. […] Reaction is started by adding 18 μL Boc-Lys(trifluoroacetyl)-AMC substrate and incubating at 37° C. for 20-30 minutes. The reaction is stopped by adding 50 μL trypsin (1 mg/mL) and a known HDAC inhibitor.
row,IC50 [nM],Compound
1,< 1000,"O=C(NO)C(c1ccccc1)c1ccc(OCCc2ccccc2)cc1 (centres unmarked) [Compound 2-12, N-hydroxy-2-(4-phenethoxyphenyl)-2-phenylacetamide]"
2,< 1000,O=C(NO)C(c1ccccc1)c1ccc(OCc2ccc(F)cc2)cc1 (centres unmarked) [Compound 2-13]
3,< 1000,"COc1cccc(COc2ccc(C(C(=O)NO)c3ccccc3)cc2)c1 (centres unmarked) [Compound 2-14, N-hydroxy-2-(4-(3-methoxybenzyloxy)phenyl)-2-phenylacetamide]"
4,1000 to 15000,"Cc1ccc(OC(C(=O)NO)c2ccccc2)cc1 (centres unmarked) [Compound 2-15, N-hydroxy-2-phenyl-2-(p-tolyloxy)acetamide]"
5,1000 to 15000,"O=C(NO)C(Oc1ccc2c(c1)CCC2)c1ccccc1 (centres unmarked) [Compound 2-16, 2-(2,3-dihydro-1H-inden-5-yloxy)-N-hydroxy-2-phenylacetamide]"
6,1000 to 15000,"CC(C)c1ccc(SC(C(=O)NO)c2ccccc2)cc1 (centres unmarked) [Compound 2-21, N-hydroxy-2-(4-isopropylphenylthio)-2-phenylacetamide]"
7,1000 to 15000,"CCCC(=O)N1CCCN(C(C(=O)NO)c2ccccc2)CC1 (centres unmarked) [Compound 2-22, 2-(4-butyryl-1,4-diazepan-1-yl)-N-hydroxy-2-phenylacetamide]"
8,1000 to 15000,"CCCC(=O)N1CCN(C(C(=O)NO)c2ccccc2)CC1 (centres unmarked) [Compound 2-23, 2-(4-butyrylpiperazin-1-yl)-N-hydroxy-2-phenylacetamide]"
9,1000 to 15000,"CC(C)(C)C(=O)N1CCCN(C(C(=O)NO)c2ccccc2)CC1 (centres unmarked) [Compound 2-24, N-hydroxy-2-phenyl-2-(4-pivaloyl-1,4-diazepan-1-yl)acetamide]"
10,1000 to 15000,"O=C(NO)C(c1ccccc1)N1CCN(C(=O)c2ccco2)CC1 (centres unmarked) [Compound 2-27, 2-(4-(furan-2-carbonyl)piperazin-1-yl)-N-hydroxy-2-phenylacetamide]"
11,1000 to 15000,"Cc1cccc(C(=O)N2CCCN(C(C(=O)NO)c3ccccc3)CC2)c1 (centres unmarked) [Compound 2-29, N-hydroxy-2-(4-(3-methylbenzoyl)-1,4-diazepan-1-yl)-2-phenylacetamide]"
12,1000 to 15000,"CC(C)NC(=O)N1CCCN(C(C(=O)NO)c2ccccc2)CC1 (centres unmarked) [Compound 2-31, 4-(2-(hydroxyamino)-2-oxo-1-phenylethyl)-N-isopropyl-1,4-diazepane-1-carboxamide]"
13,1000 to 15000,"O=C(NO)C(c1ccccc1)N1CCN(C(=O)Nc2cccnc2)CC1 (centres unmarked) [Compound 2-34, 4-(2-(hydroxyamino)-2-oxo-1-phenylethyl)-N-(pyridin-3-yl)piperazine-1-carboxamide]"
14,1000 to 15000,"Cc1ccccc1NC(=O)N1CCN(C(C(=O)NO)c2ccccc2)CC1 (centres unmarked) [Compound 2-36, 4-(2-(hydroxyamino)-2-oxo-1-phenylethyl)-N-o-tolylpiperazine-1-carboxamide]"
15,1000 to 15000,"COc1cccc(NC(=O)N2CCCN(C(C(=O)NO)c3ccccc3)CC2)c1 (centres unmarked) [Compound 2-37, 4-(2-(hydroxyamino)-2-oxo-1-phenylethyl)-N-(3-methoxyphenyl)-1,4-diazepane-1-carboxamide]"
16,< 1000,"Cn1cnc(S(=O)(=O)N2CCN(C(C(=O)NO)c3ccccc3)CC2)c1 (centres unmarked) [Compound 2-38, N-hydroxy-2-(4-(1-methyl-1H-imidazol-4-ylsulfonyl)piperazin-1-yl)-2-phenylacetamide]"
17,1000 to 15000,"Cn1cnc(S(=O)(=O)N2CCCN(C(C(=O)NO)c3ccccc3)CC2)c1 (centres unmarked) [Compound 2-39, N-hydroxy-2-(4-(1-methyl-1H-imidazol-4-ylsulfonyl)-1,4-diazepan-1-yl)-2-phenylacetamide]"

row,IC50 [nM],Compound
1,1000 to 15000,"O=C(NO)C(c1ccccc1)N1CCN(Cc2cccnc2)CC1 (centres unmarked) [Compound 2-40, N-hydroxy-2-phenyl-2-(4-(pyridin-3-ylmethyl)piperazin-1-yl)acetamide]"
2,1000 to 15000,"O=C(NO)C(c1ccccc1)N1CCC2(CC1)OCCO2 (centres unmarked) [Compound 2-41, N-hydroxy-2-phenyl-2-(1,4-dioxa-8-azaspiro[4.5]decan-8-yl)acetamide]"
3,1000 to 15000,"O=C(NO)C(c1ccccc1)N1CCC(N2CCOCC2)CC1 (centres unmarked) [Compound 2-42, N-hydroxy-2-(4-morpholinopiperidin-1-yl)-2-phenylacetamide]"
4,< 1000,"O=C(NO)C(c1ccccc1)N1CCC(c2nc(-c3cccnc3)no2)CC1 (centres unmarked) [Compound 2-43, N-hydroxy-2-phenyl-2-(4-(3-(pyridin-3-yl)-1,2,4-oxadiazol-5-yl)piperidin-1-yl)acetamide]"
5,< 1000,"O=C(NO)C(c1ccccc1)N1CCC(c2nc(-c3ccc4c(c3)OCO4)no2)CC1 (centres unmarked) [Compound 2-44, 2-(4-(3-(benzo[d][1,3]dioxol-5-yl)-1,2,4-oxadiazol-5-yl)piperidin-1-yl)-N-hydroxy-2-phenylacetamide]"
6,1000 to 15000,"O=C(NO)C(Sc1ccncc1)c1ccccc1 (centres unmarked) [Compound 2-45, N-hydroxy-2-phenyl-2-(pyridin-4-ylthio)acetamide]"
7,1000 to 15000,"Cc1occc1SC(C(=O)NO)c1ccccc1 (centres unmarked) [Compound 2-46, N-hydroxy-2-(2-methylfuran-3-ylthio)-2-phenylacetamide]"
8,1000 to 15000,"O=C(NO)C(Sc1ccc(C(F)(F)F)cn1)c1ccccc1 (centres unmarked) [Compound 2-47, N-hydroxy-2-phenyl-2-(5-(trifluoromethyl)pyridin-2-ylthio)acetamide]"
9,1000 to 15000,"O=C(NO)C(Sc1nccc(-c2cccs2)n1)c1ccccc1 (centres unmarked) [Compound 2-48, N-hydroxy-2-phenyl-2-(4-(thiophen-2-yl)pyrimidin-2-ylthio)acetamide]"
10,< 1000,"O=C(NO)C(Sc1ccnc2cc(C(F)(F)F)ccc12)c1ccccc1 (centres unmarked) [Compound 2-49, N-hydroxy-2-phenyl-2-(7-(trifluoromethyl)quinolin-4-ylthio)acetamide]"
11,< 1000,"O=C(NO)C(c1ccccc1)c1cccc(NCc2ccc(F)cc2)c1 (centres unmarked) [Compound 2-50, 2-(3-(4-fluorobenzylamino)phenyl)-N-hydroxy-2-phenylacetamide]"
12,< 1000,"O=C(NO)C(c1ccccc1)c1ccc(NCc2ccc(F)cc2)cc1 (centres unmarked) [Compound 2-51, 2-(4-(4-fluorobenzylamino)phenyl)-N-hydroxy-2-phenylacetamide]"
13,1000 to 15000,"CC(=O)Nc1cccc(C(C(=O)NO)c2ccccc2)c1 (centres unmarked) [Compound 2-52, 2-(3-acetamidophenyl)-N-hydroxy-2-phenylacetamide]"
14,< 1000,"CC(C)CC(=O)Nc1ccc(C(C(=O)NO)c2ccccc2)cc1 (centres unmarked) [Compound 2-53, N-(4-(2-(hydroxyamino)-2-oxo-1-phenylethyl)phenyl)-3-methylbutanamide]"
15,1000 to 15000,"CC(C)CC(=O)Nc1cccc(C(C(=O)NO)c2ccccc2)c1 (centres unmarked) [Compound 2-54, N-(3-(2-(hydroxyamino)-2-oxo-1-phenylethyl)phenyl)-3-methylbutanamide]"
16,< 1000,"O=C(Nc1ccc(C(C(=O)NO)c2ccccc2)cc1)c1ccccc1 (centres unmarked) [Compound 2-55, N-(4-(2-(hydroxyamino)-2-oxo-1-phenylethyl)phenyl)benzamide]"
17,1000 to 15000,"O=C(Nc1cccc(C(C(=O)NO)c2ccccc2)c1)c1ccccc1 (centres unmarked) [Compound 2-56, N-(3-(2-(hydroxyamino)-2-oxo-1-phenylethyl)phenyl)benzamide]"

row,Compound,IC50 [nM]
1,"O=C(NO)C(c1ccccc1)N1CCN(C(=O)Cc2ccccc2)CC1 (centres unmarked) [Compound 2-28, N-hydroxy-2-phenyl-2-(4-(2-phenylacetyl)piperazin-1-yl)acetamide]",1000 to 15000
